Laboratory results as given in patent US20100317845A1, “Sucrose of new confrontational polymorphs and manufacturing method thereof” (NATIONAL CENTRAL UNIVERSITY, priority 2009, published 2010).
≈ marks a conversion by molar mass, not a printed value.

Assays:
physchem [1] = type: physicochemical; conditions: 25 °C
physchem [2] = type: physicochemical; conditions: 60 °C, water
Experimental: In Step S42, preheat 60 mL of furfuryl alcohol below 60° C. for approximately 15 minutes. In Step S43, mix the furfuryl alcohol and the saturated sucrose solution in a ratio of 1:1, and stir the mixed solution uniformly by a rotation speed of 500 rpm. In Step S44, maintain the mixed solution at 60° C., and crystal starts forming after approximately 4 to 5 hours. In Step S45, turn off the power of the constant-temperature water tank, and lower the temperature to room temperature naturally, and maintain this state for three days until the crystallization completes, and filter the mixed solution, and rinse the recrystallized sucrose by ethyl alcohol or acetone, and bake the crystal sucrose in a vacuum oven at 40° C. for 24 hours to obtain a Form II sucrose of a new conformational polymorph in accordance with the present invention.

solubility (physchem [1]): 1850 to 1950 mg/mL (≈ 5400 to 5700 mM)
solubility (physchem [2]): 2870 mg/mL (≈ 8390 mM)
SMILES: OC[C@H]1O[C@@](CO)(O[C@H]2O[C@H](CO)[C@@H](O)[C@H](O)[C@H]2O)[C@@H](O)[C@@H]1O [Form I sucrose, sucrose]
